Literature values in patent publication US20250235391A1, “Lip Balm Containing Caffeine, Nicotine or Testosterone” (Shear Kershman Laboratories, Inc., priority 2018, published 2025).

Question: Which results are given for CCCCCc1cc(O)c2c(c1)OC(C)(C)[C@@H]1CCC(C)=C[C@@H]21 [Dronabinol, A9-tetrahydrocannabinol]?
Answer: duration of action for psychoactive effects (after oral administration): 4 to 6 h; duration of appetite stimulant effect (after oral administration): ≥ 24 h; peak effect (time) (after oral administration): 2 to 4 h; maximal plasma levels (oral dosing of 20 mg in a sesame oil formulation): around 10 ng/ml; administered dose reaching systemic circulation (oral, first pass hepatic metabolism and high lipid solubility): 10-20%; absorbed after a single oral dose (single oral dose): 90-95%
